# Results from US8722616B2, “Anti-HIV peptides and methods of use thereof” (priority 2009, dated 2014).
# No end group written: not given here.
# Legend:
# [1] = system: HIV-1IIIB; test: microbe, parasite or virus in culture
# Experimental: (§1) Anti-HIV cytopathic effect inhibition assays were conducted as described (Buckheit et al. (1995) Antimicrob. Agents Chemother., 39:2718-2727). In brief, serially diluted peptides were added to a 96-well round bottom microtiter plate in triplicate. CEM-SS cells at a concentration of 2.5×10^3 cells per well and HIV-1IIIB at the appropriate pre-determined titer were sequentially added to the microtiter plate. The cultures were incubated at 5% CO2/37° C. for six days. Following the incubation, the microtiter plates were stained with XTT tetrazolium dye to evaluate the efficacy and toxicity of the test compound(s).
# as §1, with “Cytopathic Effect (CPE) Inhibition Assay: The CPE assay was performed” for “Anti-HIV cytopathic effect inhibition assays were conducted”, “as previously” for “as”, “Briefly,” for “In brief,”, “compound was” for “peptides were”
# [2] = system: CEM-SS cells; test: Cytotoxicity in the CPE assay (XTT, 50% reduction in cell viability)
# Experimental: as §1
# as §1, with “Cytopathic Effect (CPE) Inhibition Assay: The CPE assay was performed” for “Anti-HIV cytopathic effect inhibition assays were conducted”, “as previously” for “as”, “Briefly,” for “In brief,”, “compound was” for “peptides were”
# [3] = in vitro; details: human
# Experimental: as §1
# as §1, with “Cytopathic Effect (CPE) Inhibition Assay: The CPE assay was performed” for “Anti-HIV cytopathic effect inhibition assays were conducted”, “as previously” for “as”, “Briefly,” for “In brief,”, “compound was” for “peptides were”
# [4] = >100 μg/ml defined as HIV inactive
# [5] = read-out: TC50, Table 1, CEM-SS cells, six days, 50% reduction in cell viability
# [6] = read-out: TC50, Table 3, CEM-SS cells
# [7] = Table 4, LL-37-derived peptides, CEM-SS cells
# [8] = Table 2, sequence shuffling, CEM-S cells
# [9] = read-out: TC50, Table 2, CEM-S cells
# [10] = Table 1, CEM-SS cells, HIV-1IIIB, six days, 50% inhibition of virus replication
# [11] = Table 5, BMAP-27-derived peptides, CEM-SS cells
compound,measurement,setting,value
"SWKSMAKKLKEYMEKLKQRA [Latarcin 3a, reference compound]",EC50,[1]; [4],~100 µg/mL
"FFHHIFRGIVHVGKTIHRLVTG [Piscidin 1, reference compound]",CC50,[2]; [5],6.9 µM
"GLRSKIWLWVLLMIWQESNKFKKM [DRS S9, reference compound]",EC50,"[1]; Table 3, CEM-SS cells",31.6 µM
same,CC50,[2]; [6],> 32.9 µM
KRIVQRIKDFLR-NH2 [KR-12],EC50,[1]; [7],> 63.5 µM
same,CC50 at 6 days,[3],> 63.5 µM
GLWEKIDKFASII [Peptide B2],EC50,[1]; [8],> 65.8 µM
same,CC50,[2]; [9],> 65.8 µM
"HVDKKVADKVLLLKQLRIMRLLTRL [Spinigerin, reference compound]",toxicity to human cells at,[2],≥ 25 µM
same,CC50,"[2]; human, 6 days",> 33.3 µM
GWFDIIKKIASEL [Peptide B4],EC50,[1]; 1IIIB,10.7 µM
same,CC50,[2],38.9 µM
"FLFPLITSFLSKVL [Ranatuerin 9, reference compound]",EC50,[1]; 1IIIB,16.7 µM
same,CC50,[3],34.6 µM
"GKPRPYSPRPTSHPRPIRV [Drosocin, reference compound]",EC50,[1]; [10],> 45.5 µM
same,CC50,[2]; [5],> 45.5 µM
"GLNTLKKVFQGLHEAIKLINNHVQ [Psuedin 1, reference compound] [listing 1 of 2 here]",CC50,[2]; [5],> 36.8 µM
GLRSRIWLWVLLMIWQESNRFKRM [DRS S9r3],EC50,"[1]; Table 3, CEM-SS cells",1.25 µM
same,CC50,[2]; [6],> 32.1 µM
"GIWDTIKSMGKVFAGKILQNL-NH2 [Brevinin-2-related, reference compound]",CC50,[2],7.42 µM
GFNEIVQDIEDFLQNLV-NH2 [GF17-],EC50,[1]; 1IIIB,> 25.1 µM
same,CC50,[3],> 25.1 µM
KRIVQRIKDFLRNLVPRTES [KR-20],CC50 at 6 days,[3],> 40.5 µM
FFGKVLKLIRKIF-NH2 [Peptide D76],EC50,[1]; [10],0.63 µM
same,CC50 at 6 days,[3],6.78 µM
GRFKRFRKKFKKLFKKIS-NH2 [BMAP-18],EC50,[1]; [4],0.8 µg/mL
same,EC50,[1]; [11],0.35 µM
same,CC50 at 6 days,[3],8.45 µM
CC[C@@H](C)[C@@H](NC(=O)[C@H](CCCNC(=N)N)NC(=O)[C@H](CCC(N)=O)NC(=O)[C@@H](NC(=O)[C@@H](NC(=O)[C@H](CCCNC(=N)N)NC(=O)[C@H](CCCCN)NC(=O)[C@H](Cc1ccccc1)NC(=O)CN)[C@@H](C)CC)C(C)C)C(=O)N[C@@H](CCCCN)C(=O)N[C@@H](CC(=O)O)C(=O)N[C@@H](Cc1ccccc1)C(=O)N[C@@H](CC(C)C)C(=O)N[C@@H](CCCNC(=N)N)C(=O)N[C@@H](CC(N)=O)C(=O)N[C@@H](CC(C)C)C(=O)N[C@H](C(N)=O)C(C)C [GF-17d1],EC50,[1]; [7],> 47.5 µM
same,CC50 at 6 days,[3]; CEM-SS cells,22.7 µM
NLVSGLIEARKYLEQLHRKLKNRKV [Peptide D88],CC50,[2]; [5],> 33.3 µM
GRFKRFRKPFKKLFKKIS-NH2 [BMAP-18P9],EC50,[1]; [11],3.2 µM
same,CC50 at 6 days,[3],18.9 µM
"GLNTLKKVFQGLHEAIKLINNHVQ [Psuedin 1, reference compound] [listing 2 of 2 here]",EC50,[1]; [10],35.7 µM
ILGPVLGLVSRTLRRVLGIL [Maximin H5r3],EC50,"[1]; Table 3, CEM-SS cells",2.2 µM
same,CC50,[2]; [6],8.7 µM
"GFGKAFHSVSNFAKKHKTA-NH2 [Styelin A, reference compound]",EC50,[1]; [10],> 48.5 µM
"GNNRPVYIPQPRPPHPRI [Apidaecin IA, reference compound]",EC50,[1]; [10],> 47.4 µM
same,CC50,[2]; [5],> 47.4 µM
CC[C@@H](C)[C@@H](NC(=O)[C@H](CCCNC(=N)N)NC(=O)[C@H](CCC(N)=O)NC(=O)[C@@H](NC(=O)[C@@H](NC(=O)[C@H](CCCNC(=N)N)NC(=O)[C@H](CCCCN)NC(=O)[C@H](Cc1ccccc1)NC(=O)CN)[C@@H](C)CC)C(C)C)C(=O)N[C@@H](CCCCN)C(=O)N[C@@H](CC(=O)O)C(=O)N[C@@H](Cc1ccccc1)C(=O)N[C@H](CC(C)C)C(=O)N[C@@H](CCCNC(=N)N)C(=O)N[C@@H](CC(N)=O)C(=O)N[C@@H](CC(C)C)C(=O)N[C@H](C(N)=O)C(C)C [GF-17d2],EC50,[1]; [7],> 47.5 µM
same,CC50 at 6 days,[3]; CEM-SS cells,> 47.5 µM
GLRRLLGRLLRRLGRLLLR [GLR-19],EC50,"[1]; Table 3, CEM-SS cells",4.4 µM
same,CC50,[2]; [6],25.7 µM
SLSRFLRFLKIVYRRAF-NH2 [Peptide D98],EC50,[1]; [10],0.83 µM
same,CC50,[2]; [5],8.6 µM
"KGRGKQGGKVRAKAKTRSS [Parasin I, reference compound]",EC50,[1]; [10],> 50 µM
same,CC50,[2]; [5],> 50 µM
GWFDVVKHIAKRF-NH2 [Peptide D70],EC50,[1]; [10],2.99 µM
"RPKHPIKHQGLPQEVLNENLLRF [Isracidin, reference compound]",EC50,[1]; [10],> 36.2 µM
same,CC50,[2]; [5],> 36.2 µM
GIFDKLAKEISIW [Peptide B5],EC50,[1]; [8],> 65.8 µM
same,CC50,[2]; [9],> 65.8 µM
"ILGPVLGLVSDTLDDVLGIL [Maximin H5, reference compound]",EC50,"[1]; Table 3, CEM-SS cells",> 49.4 µM
same,CC50,[2]; [6],> 49.4 µM
